Measured values reported in patent publication US5879683A, “Antibacterial agent containing tea extract or active fraction thereof and β-lactam antibiotic” (priority 1994, dated 1999).
“And” between values parts separate entries of the source, which are not always exact repeats. Equal entries are not always repeated. “Also recorded” adds a separate entry of the source. One block for each compound: values may come before it.

Experiments:
Assay type in all cases: cell-based, Staphylococcus aureus
S. aureus USA#18 = test: Activity II bioassay (anti-PBP2' action), agar well diffusion with methicillin 10 μg/ml; conditions: for activity II: pure compound at 1 mg/ml
From the text: (§1) Activities I (inhibitory/killing actions against bacteria), II (anti-PBP2' action) and III (action against β-lactamase) were quantitated by bioassay, using large plates (14 cm diameter circular, or 25×25 cm square) containing IsoSensitest agar (Unipath CM 471) to a depth of about 4 mm. surface-seeded with S. aureus. Assay strains and additions to agar varied according to the activity being assayed (Table 4).
(§2) 6 mm wells were cut into the agar and filled with appropriate dilutions (in duplicate) of solutions of the material to be assayed. Following overnight incubation, diameters of inhibition zones were measured, and plots made of (log concentration) vs zone diameter. MNIC was calculated by extrapolating the regression line to zone diameter=6 mm; it was expressed ether as a concentration (μg/ml) or an activity (reciprocal of concentration in mg/ml).

S. aureus Oxford = test: Activity I bioassay (inhibitory/killing action), agar well diffusion; conditions: pure compound at 1 mg/ml
From the text: as §1, §2

MSSA = test: MIC of benzylpenicillin in presence and absence of tea extract, MSSA (activity III)
Description: (§3) Strains were grown overnight at 37° C. in IsoSensitest™ broth (ISB, Unipath CM 473), and 1 μl amounts (c. 10^6 colony forming units (cfu) were inoculated on to six series of plates of IsoSensitest™ agar containing doubling dilutions of methicillin (1024- 1 μg/ml) alone and in the presence of tea extract in various sub-inhibitory concentrations, viz final dilutions of 1/40, 1/70, 1/100, 1/200 and 1/300.
(§4) Plates were incubated at 30° for 48 h. The minimum inhibitory concentration (MIC) of antibiotic was calculated for each sample, as a measure of activity II.
The 40 strains tested in Examples 1 and 2 above, together with 9 strains of methicillin-sensitive Staph. aureus (MSSA) were tested for their resistance to benzylpenicillin in the presence or absence of tea extract, with a view to measuring activity III. The procedures used were those described in Example 1, except that benzylpenicillin replaced methicillin. Both MSSA and MRSA have natural resistance to benzylpenicillin through the production of β-lactamase.

[1] = test system: high level MRSA (20 strains of MRSA); test: MIC of methicillin alone and in presence of tea extract, agar dilution, high level MRSA (activity II); conditions: strain no. is first number of line
Description: A 2% extract of crushed leaf Japanese "Sencha" tea was made in boiling water, and filtered through a Millipore filter. This extract contains about 14.7 mg/ml of tea.
Sodium methicillin (SmithKline Beecham) and vancomycin hydrochloride (Lilly Industries) were Laboratory Reference preparation.
IsoSensitest agar (Unipath CM 471) was supplemented with 20 g NaCl/L.
as §3, §4

low level MRSA = test: MIC of methicillin alone and in presence of tea extract, low level MRSA (activity II); conditions: strain no. is first number of line
Description: as §3, §4
A further 20 strains of low level MRSA were tested for activity II according to the procedures described in Example 1.

MRSA = test: Methicillin MIC in presence of sub-inhibitory vancomycin (control); conditions: sub-inhibitory vancomycin in place of tea
Description: A similar experiment was done using methicillin diluted in a series of sub-inhibitory concentrations of vancomycin, namely 0.5, 0.28, 0.2, 0.1 and 0.07 μg/l.
as §4

Compound: Oc1cc(O)c2c(c1)O[C@H](c1cc(O)c(O)c(O)c1)[C@H](O)C2 [EGC, Epigallocatechin]
activity II, pure compounds (S. aureus USA#18): no activity II

Compound: O=C(O[C@@H]1Cc2c(O)cc(O)cc2O[C@@H]1c1cc(O)c(O)c(O)c1)c1cc(O)c(O)c(O)c1 [EGCG, epigallocatechin gallate]
activity II, pure compounds (S. aureus USA#18): no activity II

Compound: Oc1cc(O)c2c(c1)O[C@H](c1ccc(O)c(O)c1)[C@H](O)C2 [Epicatechin, epicatechin]
activity II (S. aureus USA#18): no evidence of activity I or II
activity I (S. aureus Oxford): no evidence of activity I or II

Compound: O=c1c(O)c(-c2ccc(O)c(O)c2)oc2cc(O)cc(O)c12 [Quercitin, quercitin]
activity II, pure compounds (S. aureus USA#18): no activity II

Compound: CC1(C)S[C@@H]2[C@H](NC(=O)Cc3ccccc3)C(=O)N2[C@H]1C(=O)O [benzylpenicillin]
MIC (MSSA; Staphylococcus aureus, 48 h, read-out: MIC of benzylpenicillin, alone, MSSA, strain no. is first number of line): > 512 µg/mL
MIC of benzylpenicillin, alone (MSSA; strain no. is first number of line): 512 µg/mL and 256 µg/mL

Compound: O=C(/C=C/c1ccc(O)c(O)c1)O[C@@H]1C[C@](O)(C(=O)O)C[C@@H](O)[C@H]1O [chlorogenic acid]
activity II (S. aureus USA#18): no evidence of activity I or II
activity I (S. aureus Oxford): no evidence of activity I or II

Compound: O=C(O)c1cc(O)c(O)c(O)c1 [gallic acid]
activity II (S. aureus USA#18): no evidence of activity I or II
activity I (S. aureus Oxford): no evidence of activity I or II

Compound: O=c1c(O)c(-c2ccc(O)cc2)oc2cc(O)cc(O)c12 [kaempferol]
activity II, pure compounds (S. aureus USA#18): no activity II

MIC of methicillin, alone ([1]; no tea): 512 µg/mL
MIC of methicillin, +T/300 ([1]; tea extract 1/300): 512 µg/mL
MIC of methicillin, alone (low level MRSA): 32 µg/mL and 64 µg/mL
Compound: COc1cccc(OC)c1C(=O)N[C@@H]1C(=O)N2[C@@H]1SC(C)(C)[C@@H]2C(=O)O [methicillin]

Compound: Cn1cnc2c1c(=O)[nH]c(=O)n2C [theobromine]
activity II (S. aureus USA#18): no evidence of activity I or II
activity I (S. aureus Oxford): no evidence of activity I or II

Compound: Cn1c(=O)c2[nH]cnc2n(C)c1=O [theophylline]
activity II (S. aureus USA#18): no evidence of activity I or II
activity I (S. aureus Oxford): no evidence of activity I or II

Compound: CN[C@H](CC(C)C)C(=O)N[C@H]1C(=O)N[C@@H](CC(N)=O)C(=O)N[C@H]2C(=O)N[C@H]3C(=O)N[C@H](C(=O)N[C@H](C(=O)O)c4cc(O)cc(O)c4-c4cc3ccc4O)[C@H](O)c3ccc(c(Cl)c3)Oc3cc2cc(c3O[C@@H]2O[C@H](CO)[C@@H](O)[C@H](O)[C@H]2O[C@H]2C[C@](C)(N)[C@H](O)[C@H](C)O2)Oc2ccc(cc2Cl)[C@H]1O [vancomycin]
effect of vancomycin on methicillin MIC / synergy (MRSA): no synergistic effect whatever; also recorded: no reduction in methicillin MIC
